Data published in patent US20060009401A1, “Method for treatment and prevention of herpes zoster by topical application” (aRigen, Inc., priority 2004, published 2006).

How the values were obtained:
[1] = Study of interaction with 5-FU in rats; format: in vivo, Female Wister rats; details: for interaction with 5-FU: Groups 5 and 6, preparations for topical use combined with 5-FU; for Body weight (pre.) / Feed intake (pre.): before test
Description: Interactions with 5-FU, a fluorouracil-based anticancer drug, were studies using sorivudine (BVAU) 3% cream and CVAU 3% cream. Female Wister rats were raised for one week, and hair from the blade bone to the waist was shaved under anesthesia. The preparations for topical use were applied two times a day for one week. The expression “p.o.” appearing in the table means oral administration.
Erythrocyte count and leukocyte count are values measured seven days after the start of administration.

[2] = biological target: T1, dihydropyrimidine dehydrogenase (DPD) (Homo sapiens, UniProt Q12882); details: re-absorbed BVU, metabolite of oral sorivudine; cited from earlier work
T1 sequence (Q12882 4-1025): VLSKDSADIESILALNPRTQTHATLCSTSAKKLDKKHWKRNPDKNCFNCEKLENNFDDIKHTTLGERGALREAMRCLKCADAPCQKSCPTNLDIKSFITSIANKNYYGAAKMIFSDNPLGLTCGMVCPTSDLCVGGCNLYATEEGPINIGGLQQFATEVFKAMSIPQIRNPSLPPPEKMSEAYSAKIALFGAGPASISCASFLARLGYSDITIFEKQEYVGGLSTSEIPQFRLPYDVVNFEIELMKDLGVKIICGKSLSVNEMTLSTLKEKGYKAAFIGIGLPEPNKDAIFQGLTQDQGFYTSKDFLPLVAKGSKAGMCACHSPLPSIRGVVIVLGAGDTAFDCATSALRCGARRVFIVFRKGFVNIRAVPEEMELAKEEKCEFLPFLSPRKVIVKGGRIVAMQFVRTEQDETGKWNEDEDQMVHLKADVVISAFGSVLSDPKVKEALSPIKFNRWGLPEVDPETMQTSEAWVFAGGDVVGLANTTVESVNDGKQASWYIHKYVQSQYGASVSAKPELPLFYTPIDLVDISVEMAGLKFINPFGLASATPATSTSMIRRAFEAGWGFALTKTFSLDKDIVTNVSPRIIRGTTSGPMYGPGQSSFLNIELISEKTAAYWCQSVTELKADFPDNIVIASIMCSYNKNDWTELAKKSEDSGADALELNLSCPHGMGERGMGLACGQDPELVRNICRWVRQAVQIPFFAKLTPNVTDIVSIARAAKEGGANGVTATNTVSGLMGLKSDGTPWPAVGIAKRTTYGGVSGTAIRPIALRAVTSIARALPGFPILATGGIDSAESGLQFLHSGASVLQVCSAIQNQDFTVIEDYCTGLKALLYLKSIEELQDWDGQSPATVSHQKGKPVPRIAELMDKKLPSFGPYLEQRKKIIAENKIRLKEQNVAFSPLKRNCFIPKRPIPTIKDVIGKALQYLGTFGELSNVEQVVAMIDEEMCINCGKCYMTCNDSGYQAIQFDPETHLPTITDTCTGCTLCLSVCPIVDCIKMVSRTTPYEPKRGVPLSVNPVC

[3] = oral agent, administered at the same time; cited from earlier work
HSV-1 [4] = details: application to the skin, mice; cited from earlier work
VZV = details: against VZV; cited from earlier work
EBV = details: against EBV; cited from earlier work
[5] = cited from earlier work
HSV-1 [6] = details: against HSV-1; cited from earlier work
[7] = BVAU 30 mg/kg p.o. + 5-FU 60 mg/kg p.o.
[8] = BVAU 30 mg/kg p.o. + 5-FU 60 mg/kg p.o., seven days after start
[9] = single agent p.o. (BVAU 30 mg/kg; 5-FU 60 mg/kg)
[10] = single agent p.o. (BVAU 30 mg/kg; 5-FU 60 mg/kg), seven days after start of administration

For `O=c1[nH]c(=O)n([C@@H]2O[C@H](CO)[C@@H](O)[C@@H]2O)cc1/C=C/Cl` [CVAU, 1-β-D-arabinofuranosyl-5-[(E)-2-chrolovinyl]uracil], the “interaction with 5-FU” value [1] was “no interaction observed”.

For `O=c1[nH]cc(/C=C/Br)c(=O)[nH]1` [BVU, bromovinyluracil], the “inhibition of DPD” value [2] is given as “inhibits”.

For `O=c1[nH]c(=O)n([C@@H]2O[C@H](CO)[C@@H](O)[C@@H]2O)cc1/C=C/Br` [sorivudine, 1-β-D-arabinofuranosyl-5-[(E)-2-bromovinyl]uracil], the “adverse effect due to drug interaction with fluorouracil-based anticancer drugs” value [3] is given as “died because of the adverse effect due to drug interaction”, the “skin symptoms caused by inoculation with HSV-1” value (HSV-1 [4]) is given as “suppresses the skin symptoms” and the antiviral activity (VZV) is given as “extremely potent antiviral activity”. For the same compound, the antiviral activity (EBV) was “extremely potent antiviral activity”, the solubility [5] was “slightly soluble” and the antiviral activity (HSV-1 [6]) was “extremely potent antiviral activity”. The “Body weight (pre.)” value [1, 7] was 125, the “Feed intake (pre.)” value [1, 7] was 16 and the “Body weight (7 d)” value [1, 8] was 88. The Erythrocyte count [1, 8] was 892 10^4/mm^3, the “Feed intake (7 d)” value [1, 8] was 3 and the leukocyte count [1, 8] was 5.8 10^2/mm^3. For the same compound, the “side effect due to interaction with 5-FU” value ([1]; Group 4, orally administered with 5-FU (positive control)) was “significant weight loss and myelo-suppression”, the “interaction with 5-FU” value [1] was “no interaction observed” and the “Body weight (pre.)” value [1, 9] was 124. The “Feed intake (pre.)” value [1, 9] was 15, the “Body weight (7 d)” value [1, 10] was 143 and the Erythrocyte count [1, 10] was 653 10^4/mm^3. The “Feed intake (7 d)” value [1, 10] was 16 and the leukocyte count [1, 10] was 45.6 10^2/mm^3.
